What was measured:
Type in all cases: cell-based
Chromatin-MDM2 = target: T1, Chromatin-MDM2 (Homo sapiens, UniProt Q00987); assay: MDM2 degradation by western blot and immunofluorescence, chromatin-bound MDM2; conditions: degradation efficacy, cells collected 18 hours after compound addition
T1 construct: endogenous in cells; host or cells: IB111 liposarcoma cells
Description: (§1) MDM2 degradation is measured by western blot and immunofluorescence.
(§2) Cells were seeded in 6-well plates (Sarsted) in complete DMEM medium as to obtain triplicates for each condition (500 000 cells/well). After 24 hours, the compounds were added to the cells. Then, 18 hours later cells were collected for western blotting or immunofluorescence. • Western Blot: Cells were collected in Laemmli buffer, boiled and analyzed in 8% acrylamide gel. • Immunofluorescence: Cancer cells were fixed with paraformaldehyde (PFA) 4% for 15 minutes then permeabilized for 15 minutes at RT with phosphate-buffered saline (PBS) Triton 0.1% and blocked with Phosphate buffered saline-[…] (PBS-BSA) 0.3% for 1 hour at RT before overnight incubation at 4 °C with an anti- mouse monoclonal antibody against MDM2 (MABE340 Millipore). Immunodetection was performed using an Alexa 488-conjugated anti-mouse IgG antibody (Thermo Fisher) for 45 minutes at RT. Cover glasses were mounted with Mowiol (Biovalley) and DAPI (Sigma) before analysis on a Zeiss apotome.

Cytoplasmic- MDM2 = target: T2, Cytoplasmic- MDM2 (Homo sapiens, UniProt Q00987); assay: MDM2 degradation by western blot and immunofluorescence, cytoplasmic MDM2; conditions: degradation efficacy, cells collected 18 hours after compound addition
T2 construct: endogenous in cells; host or cells: hPac / ZR75.1 cancer cells
T2 sequence (Q00987 whole entry): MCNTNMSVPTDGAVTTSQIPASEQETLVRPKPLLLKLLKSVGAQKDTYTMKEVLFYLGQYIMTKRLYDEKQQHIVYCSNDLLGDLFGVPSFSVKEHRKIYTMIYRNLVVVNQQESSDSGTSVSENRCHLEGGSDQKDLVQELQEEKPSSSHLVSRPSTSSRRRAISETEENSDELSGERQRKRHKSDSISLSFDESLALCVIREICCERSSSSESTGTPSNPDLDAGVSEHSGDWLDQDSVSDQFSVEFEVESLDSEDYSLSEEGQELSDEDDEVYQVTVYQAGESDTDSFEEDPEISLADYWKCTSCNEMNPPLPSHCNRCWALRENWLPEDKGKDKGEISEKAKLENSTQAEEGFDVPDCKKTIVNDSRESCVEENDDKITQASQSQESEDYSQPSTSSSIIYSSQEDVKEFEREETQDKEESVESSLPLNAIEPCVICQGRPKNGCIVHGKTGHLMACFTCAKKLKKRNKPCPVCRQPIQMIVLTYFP
Description: as §1, §2

[1] = test system: cancer cells exhibiting recruitment of MDM2 to chromatin (IB111); assay: Cell survival, Sulforhodamine B assay (SRB assay), cells with recruitment of MDM2 to chromatin
Description: (§3) Cell survival after MDM2 inhibitor treatment (IC50) was determined using the Sulforhodamine B assay (SRB assay).
(§4) Cells were seeded in 96-well plates (Sarsted) in complete DMEM medium as to obtain triplicates for each condition (5 000 cells/well). After 24 hours, serial dilutions of the indicated compounds were added to the cells. […] Fixed SRB was finally dissolved in 10 mM Tris-HCl solution and 560nm absorbance was read using a PHERAstar FSX plate reader.

[2] = test system: cancer cells not exhibiting recruitment of MDM2 to chromatin (Hpac/ZR75.1); assay: Cell survival, Sulforhodamine B assay (SRB assay), cells without recruitment of MDM2 to chromatin; conditions: Hpac/ZR75.1 cells, treated for 72 hours with increasing concentrations
Description: as §3, §4

[3] = treated with increasing concentrations

T1 sequence (Q00987 whole entry): as above

Chromatin-MDM2 degradation (Chromatin-MDM2) | Compound | Cytoplasmic- MDM2 degradation (Cytoplasmic- MDM2) | IC50 ([1]; treated for 72 hours with increasing concentrations) [nM] | efficiency on cancer cells not exhibiting recruitment of MDM2 to chromatin [2] | IC50 [1, 3] [nM]
+++ (+++ ≥ 80%) | 2-methoxy-6-(5,6,7,8-tetrahydronaphthalen-1-yl)-5H-pyrrolo[3,2-b:5,4-c'] dipyridine [Compound 14] | - (<25%: no degradation: indicated "-" in the table) | < 500 | not efficient | 
+++ (+++ ≥ 80%) | COc1ccc2[nH]c3c(-c4cccc5ccccc45)nccc3c2n1 [Compound 1, 2-methoxy-6-(naphthalen-1-yl)-5H-pyrrolo[3,2-b:5,4-c']dipyridine] | - (<25%: no degradation: indicated "-" in the table) |  | not efficient | < 500
+ (25%≤+<40%) | COc1ccc2[nH]c3c(-c4ccnc5nccnc45)nccc3c2n1 [Compound 3, 2-methoxy-6-(pyrido[2,3-b]pyrazin-8-yl)-5H-pyrrolo[3,2-b:5,4-c'] dipyridine] | - (<25%: no degradation: indicated "-" in the table) |  |  | 
+++ (+++ ≥ 80%) | COc1ccc2[nH]c3c(-c4cccc5ccccc45)nccc3c2n1.Cl [Compound 4, 2-methoxy-6-(naphthalen-1-yl)-5H-pyrrolo[3,2-b:5,4-c']dipyridine hydrochloride] | - (<25%: no degradation: indicated "-" in the table) |  | not efficient | 
+ (25%≤+<40%) | COc1ccc2[nH]c3c(-c4ccnc5ccccc45)nccc3c2n1 [Compound 6, 2-methoxy-6-(quinolin-4-yl)-5H-pyrrolo[3,2-b:5,4-c']dipyridine] | - (<25%: no degradation: indicated "-" in the table) |  |  | 
+++ (+++ ≥ 80%) | COc1ccc2[nH]c3c(-c4cccc5ccccc45)nccc3c2n1.O=C(O)/C=C/C(=O)O [Compound 10, 2-methoxy-6-(naphthalen-1-yl)-5H-pyrrolo[3,2-b:5,4-c']dipyridine fumarate] | - (<25%: no degradation: indicated "-" in the table) |  | not efficient | 
+++ (+++ ≥ 80%) | COc1ccc2[nH]c3c(-c4cccc5ccccc45)nccc3c2n1.O=C(O)CC(O)(CC(=O)O)C(=O)O [Compound 11, 2-methoxy-6-(naphthalen-1-yl)-5H-pyrrolo[3,2-b:5,4-c']dipyridine 2-hydroxypropane-1,2,3-tricarboxylate] | - (<25%: no degradation: indicated "-" in the table) |  | not efficient | 
++ (40%≤++<80%) | COc1ccc2[nH]c3c(-c4cccc5ccccc45)nccc3c2n1.O=P(O)(O)O [Compound 12, 2-methoxy-6-(naphthalen-1-yl)-5H-pyrrolo[3,2-b:5,4-c']dipyridine phosphate] | - (<25%: no degradation: indicated "-" in the table) |  | not efficient | 
++ (40%≤++<80%) | COc1ccc2[nH]c3c(-c4cccc5ccccc45)nccc3c2n1.O=S(=O)(O)O [Compound 13, 2-methoxy-6-(naphthalen-1-yl)-5H-pyrrolo[3,2-b:5,4-c']dipyridine sulfate] | - (<25%: no degradation: indicated "-" in the table) |  | not efficient | 
++ (40%≤++<80%) | COc1ccc2[nH]c3c(-c4ccc(F)c5ccccc45)nccc3c2n1 [Compound 15, 6-(4-fluoronaphthalen-1-yl)-2-methoxy-5H-pyrrolo [3,2-b: 5,4-c'] dipyridine] | - (<25%: no degradation: indicated "-" in the table) |  | not efficient | < 500
+++ (+++ ≥ 80%) | COc1ccc2[nH]c3c(-c4cccc5c4CCCC5)nccc3c2n1.Cl [Compound 16, 2-methoxy-6-(5,6,7,8-tetrahydronaphthalen-1-yl)-5H-pyrrolo[3,2-b:5,4-c']dipyridine hydrochloride] | - (<25%: no degradation: indicated "-" in the table) |  | not efficient | < 500
+ (25%≤+<40%) | COc1ccc2[nH]c3c(-c4ccc(F)c5ccccc45)nccc3c2n1.Cl [Compound 17, 6-(4-fluoronaphthalen-1-yl)-2-methoxy-5H-pyrrolo [3,2-b: 5,4-c']dipyridine hydrochloride] | - (<25%: no degradation: indicated "-" in the table) |  |  | 
